Assay results from US20250092065A1, “2-(INDAZOL-5-YL)-6-(PIPERIDIN-4-YL)-1,7-NAPHTHYRIDINE DERIVATIVES AND RELATED COMPOUNDS AS MODULATORS FOR SPLICING NUCLEIC ACIDS AND FOR THE TREATMENT OF PROLIFERATIVE DISEASES” (REMIX THERAPEUTICS INC., priority 2022, published 2025).
pIC50: −log10 of the molar value. Like-named read-outs stand apart in the source and are kept apart here.

Experiments:
K562 cells = experiment: Cell Titer Glo 2.0 cell viability (toxicity) assay, K562; settings: 500 cells/well, 72 hours
HTT = experiment: HiBiT protein abundance assay, HTT (K562 HiBiT knock-in); assay type: cell-based, human; settings: HiBiT knock-in K562 cells, 24 hours, top dose 10 μM
Method in brief: (§1)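 Luminescence readout: Nano-Glo HiBiT lytic detection after 24 h compound exposure of K562 HiBiT knock-in cells, 10000 cells/well. Dosing 10-pt, 3-fold, top 10 μM final. % response vs untreated parental K562 and DMSO controls; 4PL fit, IC50 = concentration giving 50% protein abundance.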

HTT mRNA = experiment: RT-qPCR splicing assay, HTT mRNA canonical (CJ) and alternative (AJ) junction; assay type: cell-based, human; settings: Homo sapiens; for AC50: HTT alternative junction mRNA, read-out: HTT AJ (increase in AJ mRNA, AC50)
Method in brief: (§2)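 A673 or K562 cells treated 24 h at 37 °C with an 11-point 3-fold dilution series (top 10 uM, DMSO ≤0.25%). Lysates went directly to one-step RT-qPCR quantifying canonical (CJ) and alternative-exon (AJ) junctions, normalized to GAPDH, GUSB or PPIA. Values from ΔΔCt versus DMSO, RQ = 2^(−ΔΔCt), expressed as percentage response.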

SMN2 mRNA = experiment: RT-qPCR splicing assay, SMN2 mRNA; assay type: cell-based, human; settings: Homo sapiens, canonical junction qPCR panel, Table 4; read-out: SMN2 IC50 (decrease in CJ mRNA levels)
Method in brief: as §2

Target C = experiment: HiBiT protein abundance assay, Target C (K562 HiBiT knock-in); assay type: cell-based, human; settings: HiBiT knock-in K562 cells, 24 hours, top dose 10 μM
Method in brief: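 K562 HiBiT knock-in cells (10000/well) were treated 24 h at 37° C with a 10-point 3-fold dilution series (top 10 μM final, ≤0.25% DMSO). HiBiT luminescence was read after lytic LgBiT detection. Percent response used unmodified K562 and DMSO-treated knock-in controls, and IC50 came from a four-parameter fit at 50% of untreated.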

MYB = experiment: HiBiT protein abundance assay, MYB (K562 HiBiT knock-in); assay type: cell-based, human; settings: HiBiT knock-in K562 cells, 24 hours, top dose 10 μM
Method in brief: as §1

MYB mRNA = experiment: RT-qPCR splicing assay, MYB mRNA canonical (CJ) and alternative (AJ) junction; assay type: cell-based, human; settings: Homo sapiens; for AC50: MYB alternative junction mRNA, read-out: MYB AJ (increase in AJ mRNA, AC50)
Method in brief: as §2

[1] = HTT canonical junction mRNA, RT-qPCR, read-out: HTT CJ (decrease in CJ mRNA levels, IC50)
[2] = canonical junction qPCR panel, Table 4, read-out: HTT IC50 (decrease in CJ mRNA levels)
[3] = MYB canonical junction mRNA, RT-qPCR, read-out: MYB CJ (decrease in CJ mRNA levels, IC50)
[4] = canonical junction qPCR panel, Table 4, read-out: MYB IC50 (decrease in CJ mRNA levels)

Compound	Effect of Exemplary Compounds on Cell Viability, K562 (K562 cells)	pIC50 (HTT)	AC50 (HTT mRNA; RT-qPCR) [nM]	pIC50 (HTT mRNA; [1])	pIC50 (HTT mRNA; [2])	pIC50 (SMN2 mRNA)	pIC50 (Target C)	pIC50 (MYB)	AC50 (MYB mRNA; RT-qPCR) [nM]	pIC50 (MYB mRNA; [3])	pIC50 (MYB mRNA; [4])
Cn1cc2cc(O)c(-c3ccc4nc(C5CCNCC5)ccc4n3)cc2n1 [Compound 146]	C (C represents 1000-9999 nM)	5.00 to 6.00	1000 to 10000	5.00 to 6.00	5.00 to 6.00	6.00 to 7.00	5.00 to 6.00	5.00 to 6.00	1000 to 10000	5.00 to 6.00	5.00 to 6.00
Cc1nc2cc(O)c(-c3ccc4nc(C5CCNCC5)ccc4n3)cc2s1 [Compound 148]	B (B represents 100-1000 nM)	5.00 to 6.00	1000 to 10000	5.00 to 6.00	5.00 to 6.00	> 7.00	5.00 to 6.00	5.00 to 6.00	100 to 1000	6.00 to 7.00	6.00 to 7.00
Cc1cn2cc(-c3ccc4nc(C5CCNCC5)ccc4n3)c(O)cc2n1 [Compound 149]	C (C represents 1000-9999 nM)	5.00 to 6.00	> 10000	< 5.00	< 5.00	6.00 to 7.00	< 5.00	5.00 to 6.00	> 10000	5.00 to 6.00	5.00 to 6.00
Cc1cn2nc(-c3ccc4nc(C5CCNCC5)ccc4n3)c(O)c2c(C)n1 [Compound 150]	A (A represents <100 nM)	> 7.00	< 100	> 7.00	> 7.00	> 7.00	> 7.00	> 7.00	< 100	> 7.00	> 7.00
c1c[nH]c(-c2ccc3nc(C4CCNCC4)ccc3n2)n1 [Compound 152]	D (D represents greater than 10 μM in K562 cells)	< 5.00	> 10000	< 5.00	< 5.00	5.00 to 6.00	< 5.00	< 5.00	> 10000	< 5.00	< 5.00
Cn1cc2cc(-c3ccc4nc(N5CC[C@@H](NC(C)(C)C)C5)ccc4n3)c(O)cc2n1 [Compound 153]	B (B represents 100-1000 nM)	> 7.00	< 100	> 7.00	> 7.00	> 7.00	> 7.00	> 7.00	< 100	> 7.00	> 7.00
Cn1cc2cc(-c3ccc4nc(N5CC[C@H](NC(C)(C)C)C5)ccc4n3)c(O)cc2n1 [Compound 154]	A (A represents <100 nM)	> 7.00	< 100	> 7.00	> 7.00	> 7.00	> 7.00	> 7.00	< 100	6.00 to 7.00	6.00 to 7.00
Cn1cc2cc(-c3ccc4nc(N5CC[C@@H](NC6CCC6)C5)ccc4n3)c(O)cc2n1 [Compound 157]	B (B represents 100-1000 nM)	> 7.00	< 100	> 7.00	> 7.00	> 7.00	6.00 to 7.00	> 7.00	< 100	> 7.00	> 7.00
Cn1cc2cc(-c3ccc4nc(N5CCC(NC6CC6)C5)ccc4n3)c(O)cc2n1 (stereo not drawn) [Compound 158]	B (B represents 100-1000 nM)	> 7.00	< 100	> 7.00	> 7.00	> 7.00	6.00 to 7.00	> 7.00	< 100	> 7.00	> 7.00
Cn1cc2cc(-c3ccc4nc(OC5CNC5)ccc4n3)c(O)cc2n1 [Compound 159]	C (C represents 1000-9999 nM)	6.00 to 7.00	1000 to 10000	5.00 to 6.00	5.00 to 6.00	6.00 to 7.00	5.00 to 6.00	6.00 to 7.00	1000 to 10000	5.00 to 6.00	5.00 to 6.00
Cn1cc2cc(-c3ccc4nc(N5CC[C@]67CCN[C@H]6CC[C@H]57)ccc4n3)c(O)cc2n1 [Compound 160]	B (B represents 100-1000 nM)	6.00 to 7.00	100 to 1000	6.00 to 7.00	6.00 to 7.00	> 7.00	6.00 to 7.00	6.00 to 7.00	100 to 1000	6.00 to 7.00	6.00 to 7.00
COc1cc2ccncc2cc1-c1ccc2nc(N3CCC(NC(C)(C)C)C3)ccc2n1 (stereo not drawn) [Compound 161]	C (C represents 1000-9999 nM)	< 5.00	> 10000	< 5.00	< 5.00	5.00 to 6.00	< 5.00	< 5.00	> 10000	< 5.00	< 5.00
Cn1cc2cc(-c3ccc4nc(N5CCC56CCNC6)ccc4n3)c(O)cc2n1 (stereo not drawn) [Compound 162]	C (C represents 1000-9999 nM)	< 5.00	> 10000	< 5.00	< 5.00	5.00 to 6.00	< 5.00	< 5.00	> 10000	< 5.00	< 5.00
Cn1cc2cc(-c3ccc4nc(N5CCC56CCCNC6)ccc4n3)c(O)cc2n1 (stereo not drawn) [Compound 163]	C (C represents 1000-9999 nM)	5.00 to 6.00	> 10000	< 5.00	< 5.00	6.00 to 7.00	< 5.00	5.00 to 6.00	1000 to 10000	5.00 to 6.00	5.00 to 6.00
Cn1cc2cc(-c3ccc4nc(N5CCC56CCNCC6)ccc4n3)c(O)cc2n1 [Compound 164]	B (B represents 100-1000 nM)	6.00 to 7.00	100 to 1000	6.00 to 7.00	6.00 to 7.00	6.00 to 7.00	6.00 to 7.00	6.00 to 7.00	100 to 1000	6.00 to 7.00	6.00 to 7.00
